Measured values taken from ChEMBL document CHEMBL1201862, “PubChem BioAssay data set” (2004).
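Compound exposure: 48 hours, 5 concentrations, 96-well plates. GI50 marks 50% less growth.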 Activity calls are given as the source filed them. Cut-off read from the data, not from the text of the source: active = GI50 up to about 1.1 µM and inactive = higher.

What was measured:
Assay in all cases: growth of human tumour cells (NCI), 48 h
A549 = tested on: A549
CAKI-1 = tested on: CAKI-1
COLO 205 = tested on: COLO 205
EKVX = tested on: EKVX
HCT-116 = tested on: HCT-116
HOP-92 = tested on: HOP-92
HT-29 = tested on: HT-29
NCI-H23 = tested on: NCI-H23
NCI-H460 = tested on: NCI-H460
OVCAR-3 = tested on: OVCAR-3
OVCAR-4 = tested on: OVCAR-4
OVCAR-8 = tested on: OVCAR-8
RPMI-8226 = tested on: RPMI-8226
SK-OV-3 = tested on: SK-OV-3
SNB-75 = tested on: SNB-75
UACC-257 = tested on: UACC-257
UO-31 = tested on: UO-31
KM12 = tested on: KM12
MCF7 = tested on: MCF7
HL-60 = tested on: HL-60

| SMILES | GI50 (A549) | GI50 (CAKI-1) | GI50 (COLO 205) | GI50 (EKVX) | GI50 (HCT-116) | GI50 (HOP-92) | GI50 (HT-29) | GI50 (NCI-H23) | GI50 (NCI-H460) | GI50 (OVCAR-3) | GI50 (OVCAR-4) | GI50 (OVCAR-8) | GI50 (RPMI-8226) | GI50 (SK-OV-3) | GI50 (SNB-75) | GI50 (UACC-257) | GI50 (UO-31) | GI50 (KM12) | GI50 (MCF7) | GI50 (HL-60) |
| --- | --- | --- | --- | --- | --- | --- | --- | --- | --- | --- | --- | --- | --- | --- | --- | --- | --- | --- | --- | --- |
| COc1ccc(C2C(C(=O)O)=C(CO)Oc3cc4c(cc32)OCO4)cc1 (centres undefined) | > 100 µM (inactive) | > 100 µM (inactive) | > 100 µM (inactive) | > 100 µM (inactive) | > 100 µM (inactive) | > 100 µM (inactive) | > 100 µM (inactive) | > 100 µM (inactive) | > 100 µM (inactive) | > 100 µM (inactive) | > 100 µM (inactive) | > 100 µM (inactive) | > 100 µM (inactive) | > 100 µM (inactive) | 27.4 µM (inactive) | > 100 µM (inactive) | > 100 µM (inactive) |  |  |  |
| OC[C@H]1NC[C@@H](O)[C@@H](O)[C@H]1O |  | > 100 µM (inactive) | > 100 µM (inactive) |  | > 100 µM (inactive) | > 100 µM (inactive) | > 100 µM (inactive) | > 100 µM (inactive) | > 100 µM (inactive) | > 100 µM (inactive) | > 100 µM (inactive) | > 100 µM (inactive) | > 100 µM (inactive) | > 100 µM (inactive) | 9.29 µM (inactive) | > 100 µM (inactive) | > 100 µM (inactive) | > 100 µM (inactive) | > 100 µM (inactive) |  |
| O=c1[nH]nc(NCc2ccccc2)c2nnn(Cc3ccccc3)c12 | > 100 µM (inactive) | > 100 µM (inactive) | > 100 µM (inactive) | > 100 µM (inactive) | > 100 µM (inactive) | > 100 µM (inactive) | > 100 µM (inactive) | > 100 µM (inactive) | > 100 µM (inactive) | > 100 µM (inactive) | > 100 µM (inactive) | > 100 µM (inactive) | > 100 µM (inactive) |  |  | > 100 µM (inactive) | > 100 µM (inactive) | > 100 µM (inactive) | > 100 µM (inactive) | > 100 µM (inactive) |
| CC1C(O)[C@@]2(OC[C@@]34C(=O)CC5(O)[C@H](CCC6Cc7nc8c(nc7C[C@]65C)CC5CC[C@@H]6C7=C[C@H]9O[C@@]%10(O[C@@](C)(CO)C[C@@H]%10O)C(C)[C@@]9(O)[C@]7(C)[C@@H](O)CC6[C@]5(C)C8)C3=CC[C@H]4C2C)OC1(C)C (some centres undefined) | < 0.000355 µM (active) | 0.0119 µM (active) | 0.00532 µM (active) | 0.00084 µM (active) | 0.000776 µM (active) | < 0.000355 µM (active) | 0.000622 µM (active) | 0.00127 µM (active) | < 0.000355 µM (active) | 1.26 µM (inactive) | 0.604 µM (active) | 0.247 µM (active) | < 0.000355 µM (active) | 0.00226 µM (active) | < 0.000355 µM (active) | 0.00524 µM (active) | 0.0254 µM (active) | > 3.55 µM (inactive) | < 0.000355 µM (active) | < 0.000355 µM (active) |
| C[Si](C)(OCCS(=O)(=O)O)C1(Cc2cccc3ccccc23)S(=O)(=O)OCCOS1(=O)=O | 23 µM (inactive) | 17.5 µM (inactive) | 12.3 µM (inactive) | 17.7 µM (inactive) | 18.5 µM (inactive) | 11.2 µM (inactive) |  | 27.8 µM (inactive) | 21.1 µM (inactive) | 12.6 µM (inactive) | 20.7 µM (inactive) | 19.5 µM (inactive) | 18.4 µM (inactive) | 15.6 µM (inactive) | 15.5 µM (inactive) | 28.1 µM (inactive) | 17.9 µM (inactive) | 14.4 µM (inactive) | 19.4 µM (inactive) | 8.26 µM (inactive) |
| NC(CCOCCP(=O)(O)O)C(=O)O (centres undefined) | > 100 µM (inactive) | > 100 µM (inactive) | > 100 µM (inactive) | > 100 µM (inactive) | > 100 µM (inactive) | > 100 µM (inactive) | > 100 µM (inactive) | > 100 µM (inactive) | > 100 µM (inactive) | > 100 µM (inactive) | > 100 µM (inactive) | > 100 µM (inactive) | > 100 µM (inactive) | > 100 µM (inactive) | > 100 µM (inactive) | > 100 µM (inactive) | > 100 µM (inactive) | > 100 µM (inactive) | > 100 µM (inactive) | > 100 µM (inactive) |
| N=S(=O)(c1ccccc1)c1ccccc1 | > 100 µM (inactive) | > 100 µM (inactive) | > 100 µM (inactive) | > 100 µM (inactive) | > 100 µM (inactive) |  | > 10 µM (inactive) | > 100 µM (inactive) | > 100 µM (inactive) | > 100 µM (inactive) | > 100 µM (inactive) | > 100 µM (inactive) | > 100 µM (inactive) | > 100 µM (inactive) | > 100 µM (inactive) | > 100 µM (inactive) | > 100 µM (inactive) | > 100 µM (inactive) |  | > 100 µM (inactive) |
| Nc1nc(=O)[nH][nH]1 | > 100 µM (inactive) | > 100 µM (inactive) | > 100 µM (inactive) | > 100 µM (inactive) | > 100 µM (inactive) | > 100 µM (inactive) | > 100 µM (inactive) | > 100 µM (inactive) | > 100 µM (inactive) | > 100 µM (inactive) | > 100 µM (inactive) | > 100 µM (inactive) | > 100 µM (inactive) | > 100 µM (inactive) | > 100 µM (inactive) | > 100 µM (inactive) | > 100 µM (inactive) | > 100 µM (inactive) | > 100 µM (inactive) | > 100 µM (inactive) |
